System: C3H mice
Experiment: Telogen Conversion Assay
Format: in vivo
Conditions: for effect on hair growth (average grade): average grade of 7 mice after 23 days, example written in present tense; for hair regrowth as compared to the control group (placebo): applied daily to mice, at the appropriate dose-level, week 3 and week 4, FIGURE; for Average Grades, 23 Days: average of 7 mice after 23 days
Protocol: FP receptor antagonists are tested for their potential to grow hair using the Telogen Conversion Assay. The Telogen Conversion Assay measures the potential of a FP receptor antagonist to inhibit in mice the conversion of hair in the resting stage of the hair growth cycle (“telogen”), to the growth stage of the hair growth cycle (“anagen”), and to assess the rate of anagen growth.
Without intending to be limited by theory, there are three principal phases of the hair growth cycle: anagen, catagen, and telogen. It is believed that there is a long telogen period in C3H mice (Harian Sprague Dawley, Inc., Indianapolis, IN) from approximately 40 days of age until about 75 days of age, when hair growth is synchronized. It is believed that after 75 days of age, hair growth is no longer synchronized. Wherein about 40 day-old mice with dark fur (brown or black) are used in hair growth experiments, melanogenesis occurs along with hair (fur) growth wherein the topical application of hair growth inducers is evaluated. The Telogen Conversion Assay herein is used to screen FP receptor antagonists for potential hair growth by measuring melanogenesis and/or inhibition of expected hair growth.
Three groups of 44 day-old C3H mice are used: a vehicle control group, a positive control group, and a test FP receptor antagonist group, wherein the test FP receptor antagonist group is administered a FP receptor antagonist. The length of the assay is typically 24 days with 15 treatment days (wherein the treatment days occur Mondays through Fridays). Day 1 is the first day of treatment. Typical dosage concentrations are set forth in Table 1, however the skilled artisan will readily understand that such concentrations may be modified.
The mice are treated topically Monday through Friday on their lower back (base of tail to the lower rib). A pipette and tip are used to deliver 400 μL to each mouse's back. The 400 μL application is applied slowly while moving hair on the mouse to allow the application to reach the skin.
While each treatment is being applied to the mouse topically, a visual grade of from 0 to 4 will be given to the skin color in the application area of each animal. As a mouse converts from telogen to anagen, its skin color will become less pink and more bluish-black.

[1] = visual skin/hair grade 0 (pink skin) to 4 (full anagen), topical

Molecule	effect on hair growth (average grade)	hair regrowth as compared to the control group (placebo)	Average Grades, 23 Days [1]	Average Grades, 25 Days (visual skin/hair grade 0 (pink skin) to 4 (full anagen), average of 7 mice after 25 days, topical)	Average Grades, 26 Days (visual skin/hair grade 0 (pink skin) to 4 (full anagen), average of 7 mice after 26 days, topical)
CC(C)OC(=O)CCC/C=C\CC1C(/C=C/[C@H](O)C2Cc3ccccc3C2)[C@@H](F)C[C@@H]1O (stereo partly drawn) [Example 4]	significantly reduces hair growth	–	–	–	–
O=C(N[C@H](c1ccccc1)c1ccccn1)[C@@H]1SCCN1S(=O)(=O)c1ccc(-c2ccccc2)cc1 [Example 3]	significantly reduces hair growth	inhibited hair regrowth	–	–	–
O=C(O)CCC/C=C\CC1C(/C=C/[C@H](O)C2Cc3ccccc3C2)[C@@H](F)C[C@@H]1O (stereo partly drawn) [Example 1]	–	–	0.4	0.1	0.7
Ile-Leu-Gly-His-(citrulline)-Asp-Tyr-Lys [Example 5]	significantly reduces hair growth	–	–	–	–
COC(=O)CCC/C=C\CC1C(/C=C/[C@H](O)C2Cc3ccccc3C2)[C@@H](F)C[C@@H]1O (stereo partly drawn) [Example 2]	–	inhibited hair regrowth	0.1	–	–
